The values below are quoted from earlier work in US12570633B2, “Preparation method for CDK4/6 inhibitor” (CHIA TAI TIANQING PHARMACEUTICAL GROUP CO., LTD., priority 2020, dated 2026).

Some results are limits rather than exact numbers.

In one data set the test system is breast cancer. To be noted: background statement referring to WO2016141881.
For a further data set, the system named is CDK4/6. To be noted: background statement referring to WO2016141881; read-out: IC50 value against CDK4/6.

As for `CC(C)c1c2cc(-c3nc(Nc4ccc(N5CCNCC5)cn4)ncc3F)ccc2nn1C` [compound of formula (I)], the “tumor inhibitory activity against breast cancer” value in the data set on breast cancer is “good tumor inhibitory activity”. The IC50 in the data set on CDK4/6 is below 1 nM.
